Results from patent US7875270B2, “Treatment solution and method for preventing posterior capsular opacification by selectively inducing detachment and/or death of lens epithelial cells” (Abbott Medical Optics Inc., priority 2002, dated 2011).

Experiments:
[1] = test system: human LECs-CCCs freshly removed from cataract operation; assay: In situ treatment of LECs attached to capsulorhexis lens capsule (LECs-CCC); assay type: cell-based
Method: The in situ effects of a treatment solution comprising dihydrochlorothiazide (DHCT) (a cotransport interference agent from the group of the thiazide and related diuretics) and hyperosmotic NaCl on human LECs is examined. The treatment is tested on LECs that are still attached to a continuous curvilinear capsulorhexis lens capsule (LECs-CCC) which are freshly removed from a human cataract operation.
The LECs-CCCs are obtained from a cataract operation and immediately put in freshly prepared Eagle's Minimum Essential Medium (MEM) supplemented with 2 mM glutamine, 25 mmol/L Hepes (pH 7.4) without foetal cow serum (FCS) and is transferred to the laboratory for evaluation. Viable LECs are identified by staining the LECs-CCCs for five minutes with 0.2% Trypan Blue. The sheets containing more than 70% viable LECs are used to assess the efficacy of the treatment. […]
In the first step, a hyperosmotic solution of NaCl is prepared by making a stock solution of 2 M NaCl by adding 58.44 g NaCl (supplied by Sigma Chemical Co., U.S.) to 500 ml dH2O. The desired concentration of osmotic NaCl is prepared by diluting the 2M stock solution with dH2O. For example, to make a hyperosmotic solution of 170 mM NaCl, the 2M NaCl stock solution was diluted with dH2O at a ratio of […]. To make a hyperosmotic solution of 200 mM NaCl, the 2M NaCl stock solution is diluted with dH2O at a ratio of 1 to 9. Final osmolarities (mOsm/kg/H2O) are determined by a freezing point depression method using cryoscopic osmometry.
In the second step, DHCT stock solution is made by adding 25 mg DHCT to 1 ml dH2O. […]
The treatment is applied by exposing the LECs-CCCs for five minutes in a small petri dish containing the treatment solution. The treatment solution is removed after five minutes exposure by a syringe and then the fresh PBS is added in the petri dish to wash away the treatment solution. The LECs-CCCs are washed three times. The changes of the LECS are monitored under a microscope. Microscope photographs are taken at 0, 2 and 5 minutes and after wash.

in vivo rabbit eyes = assay: In vivo prevention of PCO after cataract operation in rabbit eyes; conditions: DHCT and hyperosmotic NaCl
Method: The experimental group includes sixteen rabbit eyes and the control group includes four rabbit eyes. A sham cataract operation is performed on the control animals. The therapy is introduced to the others.
The pupil of each rabbit eye is preoperatively dilated with topical G Phenylephrine 10% (Alcon Labs., Inc., China) and G Cyclopentolate 1% (Bausch & Lomb Pharm., Inc., USA) three times in one hour. The rabbits are anesthetized with ketamine hydrochloride (5 mg kg-1) and xylazine hydrochloride (2 mg kg-1) and placed on an operating table. A topical anesthetic (Dieaine hydrochloride 1%) is used every five minutes on two occasions. A wire lid speculum is placed to hold the eyelids open.
A 3.2 mm scleral tunnel incision into the eye is formed at the temporal limbus. The anterior chamber is maintained with viscoelastic substances and a 4-5 mm diameter continuous curvilinear capsularhexis (CCC) is made on the anterior surface of the lens to open its bag. The treatment solution is first introduced in the LECs by hydrodissection. This ensures that the treatment fluid immediately reaches under the entire anterior capsule/LECs. This process allows for (i) separation of the lens cortex from the capsule and lens epithelium, making removal of the lens cortex easier at a later stage of the operation and (ii) the LECs to be exposed to the treatment for enough time (more than five minutes in total time).
The crystalline lens is then removed using phacoemulsification (Universal II, Alcon Labs., Inc., China). The remaining cortex is aspirated thoroughly and removed as completely as possible to expose the LECs. The lens capsular bag is then partially filed with viscoelastic material in order to maintain its shape. The viscoelastic material should not cover the LECs when the treatment solution is applied.
The treatment is spread over the inner surface of the anterior capsular bag (where the LECs attach). The anterior capsular is continuously filled by using a syringe with a bent needle. Care is taken not to over flow the bag. After the treatment solution covered the capsule bag, it is left for five minutes and then removed using a syringe.
In a few cases, IOLs are inserted. […] At the same time, the incision is enlarged to 6.0 mm and a posterior ocular lens (IOLs) (poly-methyl methacrylate, PMMA) with a 6.5 mm optic is prepared and placed into the capsular bag.
The wound is closed with or without suture.
At the completion of the surgical procedure, each rabbit eye receives subconjunctival dexamethasone (0.25 ml) and gentamicin (0.25 ml). Postoperatively, atropine sulphate 1% ophthalmic solution and neomycin sulphate-polymyxin sulphate-dexamethasone ophthalmic ointment are administered twice daily for three weeks.
The animals are evaluated for three weeks and ten weeks. […] All rabbits are evaluated by slitlamp and scored for ocular responses at 1 day and at 1, 2 and 3 weeks. (See FIG. 17, Table 1.) Three and ten weeks after surgery, the animals are anesthetized using a 2 ml intramuscular injection of 11:1 mixture of ketamine hydrochloride and xylazine 20 mg/ml and then killed with a 2 ml intravenous injection of sodium pentobarbital.
The eye globes are enucleated (some of them fixed in neutral buffered formalin 10% solution for 24 hours) and are bisected coronally just anterior to the equator. Gross examination is performed to assess. PCO development. Photographs are taken from behind (Miyake-Apple posterior photographic technique) by using a digital camera fitted to an operating microscope (Leica/Wild MZ-8, Vashaw Scientific, Inc.).
The extent and severity of PCO is scored (see FIG. 17, Table 1) according to methods reported in the literature. The lens capsules are then fixed and evaluated under a microscope (Olumpus, Optical Co. Ltd.) and photographed with a digital camera.

Compound | living LECs after rinsing ([1]; 10 or 100 μm gramicidin and PBS) | LEC changes after exposure ([1]; 10 or 100 μm gramicidin and PBS, five minutes) | LEC changes after exposure ([1]; 170 or 200 mM NaCl and 200 or 300 μm DHCT, pH ±7.8, five minutes) | living LECs after wash ([1]; 200 μm DHCT and hyperosmotic ≦200 mM NaCl) | Soemmering's ring (in vivo rabbit eyes) | intraocular inflammatory reaction and deposits (in vivo rabbit eyes; 3 and 10 weeks post-treatment) | development of central PCO (CPCO) and peripheral PCO (PPCO) (in vivo rabbit eyes; three or ten weeks post-treatment) | lens epithelial cells in pupil area (phase contrast) (in vivo rabbit eyes; three weeks after surgery, no IOLs insertion)
gramicidin | no living cells remain | shrink and large gaps gradually form between the cells. The shrinking cells then gradually round up and burst | – | – | – | – | – | –
NS(=O)(=O)c1cc2c(cc1Cl)NCNS2(=O)=O [DHCT, dihydrochlorothiazide] | – | – | shrink and gradually large gaps form between the cells. The shrinking cells then gradually round up and burst | no living cells can be observed | Most eyes did develop some degree of Soemmering's ring | minimal intraocular inflammatory reaction and deposits on the lens capsule surface | No central PCO(CPCO) (the area within the pupillary area) and peripheral PCO (PPCO) (within 6-6.5 mm outside the pupillary area) is found to have developed | no remaining lens epithelial cells
